The target in series [1] is T1, CYP1A2 (Rattus norvegicus, UniProt P04799).
T1 sequence (P04799 1-513): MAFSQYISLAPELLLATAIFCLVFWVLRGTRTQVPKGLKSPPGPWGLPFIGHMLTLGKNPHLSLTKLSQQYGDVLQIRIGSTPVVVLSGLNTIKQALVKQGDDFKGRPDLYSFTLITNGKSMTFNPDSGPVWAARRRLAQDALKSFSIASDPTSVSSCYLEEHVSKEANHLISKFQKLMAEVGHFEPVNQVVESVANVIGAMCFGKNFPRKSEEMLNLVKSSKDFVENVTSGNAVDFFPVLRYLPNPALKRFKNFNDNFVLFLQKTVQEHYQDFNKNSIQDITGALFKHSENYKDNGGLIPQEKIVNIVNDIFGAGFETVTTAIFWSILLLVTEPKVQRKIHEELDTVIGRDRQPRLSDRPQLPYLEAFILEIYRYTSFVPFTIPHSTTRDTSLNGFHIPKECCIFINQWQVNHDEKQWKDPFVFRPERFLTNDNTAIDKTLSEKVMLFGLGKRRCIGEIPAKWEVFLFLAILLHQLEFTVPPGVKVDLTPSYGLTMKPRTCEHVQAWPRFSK
To be noted: in vivo.

The test system of series [2] is CYP3A4. The settings on record: rat, in vivo.
Series [3] addresses T2, CYP2C19 (Homo sapiens, UniProt P33261). The settings on record: recombinant enzyme, 5 μM, pH 7.4.
In series [4] the target is T2, CYP2C19. The experiment in a line: biochemical. Here is the method: (§1) The mixed probe substrate consisted of testosterone 0.01 mM for CYP3A4, phenacetin 0.02 mM for CYP1A2, chlorzoxazone 0.02 mM for CYP2E1, and omeprazole 0.01 mM for CYP2C19, respectively. […] Other procedure was accorded to above step of 2.6 “Microsomal incubation conditions”.
For series [5], the target named is T3, CYP2E1 (Homo sapiens, UniProt P05181). Put plainly: biochemical. Here is the method: as §1
Series [6] has as its target T4, CYP1A2 (Homo sapiens, UniProt P05177).
T4 construct: purchased RILD (Research Institute for Liver Diseases Co., Ltd., Shanghai, China)
Put plainly: Degradation in single recombinant CYP1A2. The settings on record: 5 μM compound, single enzyme CYP1A2; for speed constant k in CYP1A2: t in min; for half-life at 5 μM: human, recombinant CYP1A2, pH 7.4, read-out: t1/2 in CYP1A2. Type of series: in vitro ADME.
T4 sequence (P05177 whole entry): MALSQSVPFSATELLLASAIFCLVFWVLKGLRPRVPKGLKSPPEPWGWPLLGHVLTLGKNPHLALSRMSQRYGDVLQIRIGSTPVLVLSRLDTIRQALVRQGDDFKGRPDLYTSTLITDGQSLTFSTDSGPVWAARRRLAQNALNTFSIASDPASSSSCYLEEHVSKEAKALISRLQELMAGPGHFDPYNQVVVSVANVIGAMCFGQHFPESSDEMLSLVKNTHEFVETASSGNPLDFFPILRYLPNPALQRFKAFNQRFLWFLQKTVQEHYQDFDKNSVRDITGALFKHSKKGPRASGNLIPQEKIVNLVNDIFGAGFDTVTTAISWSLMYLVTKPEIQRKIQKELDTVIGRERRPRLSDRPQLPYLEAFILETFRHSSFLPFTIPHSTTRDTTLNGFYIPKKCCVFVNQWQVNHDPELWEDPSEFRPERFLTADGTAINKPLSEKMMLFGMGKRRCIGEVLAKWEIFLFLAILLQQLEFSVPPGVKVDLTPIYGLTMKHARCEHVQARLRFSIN

The target in series [7] is T3, CYP2E1. The experiment in a line: in vitro. To be noted: recombinant enzyme, pH 7.4.
For series [8], the target named is T3, CYP2E1. To be noted: recombinant enzyme, 5 μM, pH 7.4.
Series [9] in a line: in vitro. To be noted: human, microsomes, pH 7.4.
The nature of series [10]: in vitro. The settings on record: for CLint: microsomes. An excerpt: Km is defined as the characteristic constant of the enzyme, which represent the […] (Vmax). The values of Vmax and Km are based on the nonlinear regression analysis of the Michaelis-Menten equation, V = Vmax × S/(Km + S). The kinetic parameters were adopted through the following parameters: S, Vmax, and V. All of these parameters represented the substrate concentration, the maximum velocity of metabolism, and the velocity of metabolism, respectively. CLint (the different ability of the organism in eliminating the particular chemical substances) is defined as Vmax/Km, which reflected the different ability of the organism in eliminating the particular chemical substances.

Series [11] concerns the target T2, CYP2C19. Put plainly: in vitro. To be noted: recombinant enzyme, pH 7.4.
Series [12] deals with T5, CYP3A4 (Homo sapiens, UniProt P08684). The experiment in a line: in vitro. To be noted: pH 7.4, probe testosterone 0.01 mM.
Target sequence in this assay (P08684 2-503): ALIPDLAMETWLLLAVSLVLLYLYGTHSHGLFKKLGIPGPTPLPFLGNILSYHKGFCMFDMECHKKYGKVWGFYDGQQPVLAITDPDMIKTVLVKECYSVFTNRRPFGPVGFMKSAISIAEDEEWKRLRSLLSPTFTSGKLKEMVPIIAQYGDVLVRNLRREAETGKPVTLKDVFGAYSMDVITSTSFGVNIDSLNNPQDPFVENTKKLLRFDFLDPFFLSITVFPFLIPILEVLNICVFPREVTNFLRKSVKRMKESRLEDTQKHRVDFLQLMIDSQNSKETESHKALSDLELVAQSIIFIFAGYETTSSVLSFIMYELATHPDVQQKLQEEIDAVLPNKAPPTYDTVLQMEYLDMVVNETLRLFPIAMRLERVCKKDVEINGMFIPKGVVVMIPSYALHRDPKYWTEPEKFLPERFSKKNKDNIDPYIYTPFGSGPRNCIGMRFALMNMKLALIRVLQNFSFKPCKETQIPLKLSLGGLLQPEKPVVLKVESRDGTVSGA
The nature of series [13]: in vitro. To be noted: male, Sprague-Dawley, rat, microsomes, pH 7.4.
Series [14] deals with T6, CYP1A2 (Homo sapiens, UniProt P05177).
T6 sequence (P05177 2-516): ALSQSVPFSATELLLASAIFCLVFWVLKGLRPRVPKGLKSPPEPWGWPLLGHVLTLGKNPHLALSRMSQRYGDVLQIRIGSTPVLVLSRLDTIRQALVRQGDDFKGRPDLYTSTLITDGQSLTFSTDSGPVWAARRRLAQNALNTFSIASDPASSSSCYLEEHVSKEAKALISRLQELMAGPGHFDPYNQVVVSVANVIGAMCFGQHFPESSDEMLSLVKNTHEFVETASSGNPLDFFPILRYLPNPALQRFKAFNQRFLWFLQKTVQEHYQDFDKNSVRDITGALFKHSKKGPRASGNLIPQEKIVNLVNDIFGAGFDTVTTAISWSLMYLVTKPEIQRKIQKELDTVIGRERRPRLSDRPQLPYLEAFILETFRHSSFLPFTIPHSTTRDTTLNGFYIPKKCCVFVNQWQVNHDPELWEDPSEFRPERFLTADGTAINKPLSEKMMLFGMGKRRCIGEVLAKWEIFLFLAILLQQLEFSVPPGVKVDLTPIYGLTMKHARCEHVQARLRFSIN
Put plainly: Inhibition of CYP1A2 activity in vitro (probe phenacetin). Type of series: in vitro ADME. The settings on record: compound 0-80 μM; probe phenacetin 0.02 mM. Here is the method: as §1

Series [15] has as its target T5, CYP3A4. Put plainly: Degradation in single recombinant CYP3A4. The series is classed as in vitro ADME. The arrangement: purchased RILD (Research Institute for Liver Diseases Co., Ltd., Shanghai, China). The settings on record: 5 μM compound, single enzyme CYP3A4; for speed constant k in CYP3A4: t in min; for half-life at 5 μM: human, recombinant CYP3A4, pH 7.4, read-out: t1/2 in CYP3A4.
Target sequence in this assay (P08684 whole entry): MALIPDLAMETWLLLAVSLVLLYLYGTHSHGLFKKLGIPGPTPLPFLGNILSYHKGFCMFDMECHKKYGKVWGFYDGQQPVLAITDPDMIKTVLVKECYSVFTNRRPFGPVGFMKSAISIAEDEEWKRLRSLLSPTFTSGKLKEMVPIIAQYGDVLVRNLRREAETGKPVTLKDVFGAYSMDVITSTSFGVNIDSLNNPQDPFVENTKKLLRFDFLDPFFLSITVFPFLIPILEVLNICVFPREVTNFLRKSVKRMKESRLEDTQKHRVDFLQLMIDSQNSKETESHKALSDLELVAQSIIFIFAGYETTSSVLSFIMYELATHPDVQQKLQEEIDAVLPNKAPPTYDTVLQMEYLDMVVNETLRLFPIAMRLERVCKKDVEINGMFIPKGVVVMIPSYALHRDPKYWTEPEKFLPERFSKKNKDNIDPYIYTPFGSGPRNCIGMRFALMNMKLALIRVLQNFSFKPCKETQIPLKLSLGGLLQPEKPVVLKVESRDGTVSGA

Series [16] relates to CYP2C19. To be noted: rat liver after 7-days i.g. treatment, low-, medium- and high-dose groups. Here is the method: To investigate the molecular mechanisms in the activity of the CYP enzymes, the level of CYP protein in the liver of rats was examined.
In this study, the grouping and administration methods were as described in the step of “Pharmacokinetic study of the probe substrate in vivo”. On the 8th day, the blood was allowed to drain through the aorta and the liver was excised quickly, […]. The liver tissue was stored at −80 °C until analysis.
Then, a piece of the liver tissue was separately homogenized and lysed in RIPA buffer with 1% proteinase inhibitor phenylmethylsulfonyl fluoride (PMSF). […] The protein levels were quantified by a BCA Assay Kit. The samples were boiled at 100 °C for 10 min. Equal amounts of protein lysates were separated on 10% SDS-polyacrylamide gels by electrophoresis and then transferred onto nitrocellulose membranes. The membranes were blocked in 5% non-fat milk. […] In addition, images were captured using an Odyssey Infra-red Imaging System v3.0.16 (LI-COR Biosciences, Lincoln, NE, USA), and quantified by densitometry scanning using ImageJ Analysis software (National Institutes of Health, Bethesda, MD, USA).

Bounds are passed on as bounds.

Experimental findings from publication PMC9317718 (Molecules, 2022) are described below.

For orientation: IC50 means the concentration that inhibits the measured activity by half. The term Km denotes the substrate concentration at which the rate is half of its maximum.

T3 sequence (P05181 whole entry): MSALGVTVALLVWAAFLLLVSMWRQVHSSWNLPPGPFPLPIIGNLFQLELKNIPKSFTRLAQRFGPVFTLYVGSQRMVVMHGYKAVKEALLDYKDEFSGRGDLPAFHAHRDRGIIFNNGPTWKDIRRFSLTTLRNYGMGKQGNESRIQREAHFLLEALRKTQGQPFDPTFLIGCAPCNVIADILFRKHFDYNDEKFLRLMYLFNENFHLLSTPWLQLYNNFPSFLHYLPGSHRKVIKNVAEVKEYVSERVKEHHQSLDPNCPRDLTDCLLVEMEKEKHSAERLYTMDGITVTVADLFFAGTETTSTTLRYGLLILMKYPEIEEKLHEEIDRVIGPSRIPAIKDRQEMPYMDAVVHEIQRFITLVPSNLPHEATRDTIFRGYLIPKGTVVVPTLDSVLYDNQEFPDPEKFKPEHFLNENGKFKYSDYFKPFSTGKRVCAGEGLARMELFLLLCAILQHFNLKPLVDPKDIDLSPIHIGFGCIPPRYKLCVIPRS
T2 sequence (P33261 whole entry): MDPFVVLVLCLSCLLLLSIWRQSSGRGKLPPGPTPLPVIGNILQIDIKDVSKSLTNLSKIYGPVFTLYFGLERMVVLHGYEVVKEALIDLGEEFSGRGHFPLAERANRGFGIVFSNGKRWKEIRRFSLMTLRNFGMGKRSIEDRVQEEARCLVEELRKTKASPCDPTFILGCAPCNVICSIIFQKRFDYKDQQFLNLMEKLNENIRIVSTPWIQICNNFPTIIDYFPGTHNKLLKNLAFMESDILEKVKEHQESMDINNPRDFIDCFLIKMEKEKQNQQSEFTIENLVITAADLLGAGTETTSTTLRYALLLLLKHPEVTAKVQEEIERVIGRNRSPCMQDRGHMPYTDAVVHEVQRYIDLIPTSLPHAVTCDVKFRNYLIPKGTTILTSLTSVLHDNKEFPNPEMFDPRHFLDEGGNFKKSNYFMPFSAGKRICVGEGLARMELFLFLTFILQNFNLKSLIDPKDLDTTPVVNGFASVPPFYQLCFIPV

Turning to `COc1cc(/C=C/C(=O)CC(=O)/C=C/c2ccc(O)c(OC)c2)ccc1O` [curcumin], in series [1], the “metabolic rate of phenacetin with increasing dose of compound” value is on record as “decreased”. Besides, the “metabolic rate of midazolam with increasing dose of compound” value in series [2] is “decreased”. Further, the “speed constant k in CYP2C19” value in series [3] is given as 0.011 ± 0.0017. In addition, the figures for the IC50 in [4], in series [5] and in series [14] were 11.9 µM, more than 80 µM and more than 80 µM, respectively. Further, the “speed constant k in CYP1A2” value in series [6] is 0.0023 ± 0.0006. The half-life at 5 μM in series [6] worked out at 5.02 h; in [7], 1.16 h; in series [11], 1.05 h; in series [15], 0.642 h. Moreover, in series [8], the “speed constant k in CYP2E1” value came to 0.01 ± 0.0024. In addition, the half-life in series [9] was found to be 2.89 h; in series [13], 0.372 h. In addition, the Km at 15 min in [10] (Sprague-Dawley, rat, pH 7.4) was found to be 48.5 ± 8.27 µM; in series [10] (human) it was 16.6 ± 4.3 µM. Moreover, the CLint in series [10] (human) is 0.2435 mL/min/(mg of Protein); in series [10] (rat), 0.3226 mL/min/(mg of Protein). This compound registered a half-inhibitory concentration (IC50) at 120 min in series [12] of 24.3 µM. For the same compound, the “speed constant k in CYP3A4” value in [15] was found to be 0.018 ± 0.0035. Further, the “protein level of CYP2C19 vs control in vivo” value in series [16] is “decreased”.
Turning to `CC(C)=C1C/C=C(\C)CC/C=C(\C)CC1=O` [germacrone], in [1], the “metabolic rate of phenacetin with increasing dose of compound” value was “increased”. Moreover, the “metabolic rate of midazolam with increasing dose of compound” value in [2] is “increased”. Moreover, the “speed constant k in CYP2C19” value in series [3] turned out to be 0.012 ± 0.0032. Moreover, the IC50 is 17.8 µM in series [4], more than 80 µM in [5] and 78.1 µM in series [14]. For the same compound, the “speed constant k in CYP1A2” value in series [6] is 0.008 ± 0.001. Besides, the half-life at 5 μM amounted to 1.44 h in [6], 1.16 h in series [7], 0.963 h in series [11] and 0.608 h in series [15]. In series [8], the “speed constant k in CYP2E1” value is on record as 0.01 ± 0.0017. Moreover, the results for the half-life in [9] and in series [13] were 0.273 h and 0.3 h, respectively. Further, the Km at 15 min in [10] (Sprague-Dawley, rat, pH 7.4) amounted to 49.6 ± 11.1 µM; in [10] (human), 44.8 ± 5.47 µM. Also, the CLint in series [10] (human) is listed as 0.3298 mL/min/(mg of Protein); in series [10] (rat), 0.2763 mL/min/(mg of Protein). The compound further yielded an IC50 at 120 min in series [12] of 3.57 µM. Also, the “speed constant k in CYP3A4” value in [15] was determined as 0.019 ± 0.0064.
